# Measured values reported in US20030207819A1, “Compositions and methods for treating inflammatory connective tissue diseases” (priority 2002, published 2003).
# Tests used:
# Assay type in all cases: in vivo, human
# [1] = tested on: patient with undifferentiated connective tissue disease; experiment: Example 6: clarithromycin trial, VAS and joint assessment; details: person
# Description: A patient, was first seen in September 1999. […] They have used a number of anti-inflammatory agents frequently for therapy.
# On the basis of the findings, including recurrent episodes of arthritis, Raynaud's, and thickening of the hands, connective tissue disease diagnoses such as Mixed Connective Tissue Disease or Progressive Systemic Sclerosis were considered.
# Based on these findings, a diagnosis of Undifferentiated Connective Tissue Disease was made. Therapy was initiated with hydroxychloroquine ([…]®, Sanofi-Synthelabo, Inc.) and a non-steroidal anti-inflammatory agent. They utilized steroid dose packs periodically for symptomatic relief of their peripheral symptoms as well as their neck symptoms.
# On examination, they had symptoms and findings much as before and a diagnosis of Undifferentiated Connective Tissue Disease was made. The patient agreed to undergo a trial with clarithromycin.
# Following screening and baseline evaluations, the patient was begun on clarithromycin (BIAXIN®, Abbott Laboratories).
# 25, 2003 (“Visit 3”), for their first recheck visit.
# When seen for their one month evaluation, the patient had been off steroid medication for approximately ten days.
# Further assessment of their status was made on Apr. 13, 2003 at which time they were now off steroids for almost a one-month period.
# Patient was again seen Apr. 21, 2003 (“Visit Four”), for their formal two-month follow-up on clarithromycin.
# [2] = tested on: patient with undifferentiated connective tissue disease; experiment: Example 1: clinical observation of patient on clarithromycin; details: person; switched from clarithromycin to azithromycin 500 mg day 1, 250 mg/day days 2 through 5
# Description: We elected to continue them on this antibiotic. […] Because the patient was on Lodine (NSAID) at the same time, we elected to see if they could stop the Lodine and still have relief of symptoms.
# [3] = tested on: patient with low-grade connective tissue symptoms; experiment: Example 5: clarithromycin study, VAS and joint assessment; details: person
# Description: In 1991, it was elected to begin the patient on hydroxychloroquine ([…]®, Sanofi-Synthelabo, Inc.) given their low-grade connective tissue symptoms not responding to non-steroidal anti-inflammatory therapy. […] A trial of hydroxychloroquine was again initiated to see how they would tolerate it. […] Hydroxychloroquine was discontinued when they wanted to attempt getting pregnant again. Therapy most recently consisted of non-steroidal inflammatory agents and physical therapy.
# On Feb. 27, 2003, the patient agreed to participate in the clarithromycin study. […] The patient was begun on clarithromycin (BIAXIN®, Abbott Laboratories) 500 mg twice per day.
smiles,measurement,setting,value
CC1(C)S[C@@H]2[C@H](NC(=O)[C@H](N)c3ccc(O)cc3)C(=O)N2[C@H]1C(=O)O [amoxicillin],effect on pain,[1]; amoxicillin tried on their own,of no help
CC[C@H]1OC(=O)[C@H](C)[C@@H](O[C@H]2C[C@@](C)(OC)[C@@H](O)[C@H](C)O2)[C@H](C)[C@@H](O[C@@H]2O[C@H](C)C[C@H](N(C)C)[C@H]2O)[C@](C)(O)C[C@@H](C)CN(C)[C@H](C)[C@@H](O)[C@]1(C)O [azithromycin],Symptoms,[2],no increase in symptoms
CCN(CCO)CCCC(C)Nc1ccnc2cc(Cl)ccc12 (centres unmarked) [hydroxychloroquine],reason for discontinuation (adverse effect),"[3]; hydroxychloroquine begun 1991, approximately nine months",weight loss
same,symptomatic improvement,"[1]; hydroxychloroquine with a non-steroidal anti-inflammatory agent, approximately six months",did not feel significant improvement
CCN(CC)CCCC(C)Nc1c2ccc(Cl)cc2nc2ccc(OC)cc12 (centres unmarked) [quinacrine],reason for discontinuation (skin colour),"[3]; quinacrine approximately one year, non-toxic condition",too yellow
